Several values for one entry are separate records, joined by “and”; a condition that tells them apart may be missing. Equal entries are not always repeated. Where two headings read alike, the source gives them in different places.
Assays:
[1] = tested on: MOLP8 cells; test: MOLP8 CellEvent Caspase-3/7 Green apoptosis activation assay (IncuCyte live-cell kinetic readout); format: cell-based; settings: each independent run listed
Experimental: (§1) MCL-1 is a regulator of apoptosis and is highly over-expressed in tumor cells that escape cell death. The assay evaluates the cellular potency of small-molecule compounds targeting regulators of the apoptosis pathway, primarily MCL-1, Bfl-1, Bcl-2, and other proteins of the Bcl-2 family. Protein-protein inhibitors disrupting the interaction of anti-apoptotic regulators with BH3-domain proteins initiate apoptosis.
Activation of the apoptotic pathway was measured using the CellEvent™ Caspase-3/7 Green ReadyProbes™ Reagent (Thermo Fisher C10423, C10723). This assay produces a green fluorescent stain in cells that enter the apoptosis pathway. CellEvent® Caspase-3/7 Green reagent is a four amino acid peptide (DEVD) conjugated to a nucleic acid-binding dye that is non-fluorescent when not bound to DNA. The CellEvent® Caspase-3/7 Green reagent is intrinsically non-fluorescent, as the DEVD peptide inhibits binding of the dye to DNA. Upon activation of caspase-3/7 in apoptotic cells, the DEVD peptide is cleaved and the free dye can bind DNA, generating a bright green fluorescence. The activation of Caspase-3 and Caspase-7 is downstream of inhibition of MCL-1 or other apoptosis inhibiting proteins in cell lines that are dependent on them.
The live-cell readout on the IncuCyte permits tracking over time of the Caspase activation. […] The IncuCyte readout also allows one to normalize for cell number, as the suspension cells are hard to distribute evenly.
Signals were measured every 2 h for a duration of 22 h. The ratio of the Caspase mask to the Confluence mask, per image, as raw data, was calculated and the kinetic trace for every well was exported to Genedata Screener for analysis.
In Genedata Screener values for 6 h, 12 h, and 22 h from the kinetic traces were extracted. The values were normalized against negative controls (untreated cells). A standard dose-response analysis was performed on the normalized data.
The following data was reported at each of the following three aforementioned time points: (a) The dose-response curve, (b) The qAC50 and qAC50 Mode, and (c) Max Activity.
Cells were maintained in culture medium containing 10% Heat Inactivated (HI) FBS, 2 mM L-Glutamine and 50 µg/mL Gentamycin phenol red free RPMI-1640. Cells were split at 0.4 million/mL twice a week.
On Day 1, plates containing individual wells with test compounds at 10 mM concentration, 150 nL per well. The final concentrations range from […] compound (and no compound control) and compounds were thawed at room temperature for 1 hour. 25 μl of prewarmed medium was added into each well by multidrop (column 1, 3-22, 24), followed by addition of DMSO control (0.6% DMSO) in column 2. The plate was sealed using Breathe-Easy® sealing membrane and shaken for 30 min at room temperature to dissolve the test compound(s) in medium. The plate was then kept in the incubator for 1 hour at 37° C., 5% CO2.
MOLP8 cells in medium at […] (20000/50 μl final in assay) were prepared with CellEvent™ Caspase-3/7 Green Detection Reagent at 4 μM (2 μM final in assay). Once prepared, the cells were added to the test compound plate in an amount of 20000 and the plate was immediately placed in the IncuCyte and imaging started using following settings: 10× objective, 2 s exposure time in green channel, interval of 2 h, acquisition stopped after 22 h.
For analysis in IncuCyte, a Basic Analysis protocol was defined to calculate the “confluence” and “caspase” areas from the “Phase” and “green” images, respectively, as follows: (a) Confluence: Segmentation Adjustment 1, Hole Fill 0, Adjust Size −2, No filters (b) Caspase: Top-Hat segmentation, Radius 10, Threshold 0.3 GCU, Edge Split On with sensitivity 0, Hole Fill 0, Adjust Size 1, and filter on a minimum Area of 20 μm^2. The analyzer is trained on a sufficient number of positive and negative control wells, as well as compound treated wells, verifying that the “confluence” layer detects both live and dead (condensed) cells. […]

[2] = tested on: MOLP-8 human multiple myeloma cell line; test: MOLP8 Caspase-Glo 3/7 luminescent assay; format: cell-based; settings: 2 hours incubation; averaged values over all runs on all batches
Text: as §1
The Caspase-Glo® 3/7 Assay is a luminescent assay that measures caspase-3 and -7 activities in purified enzyme preparations or cultures of adherent or suspension cells. The assay provides a proluminescent caspase-3/7 substrate, which contains the tetrapeptide sequence DEVD. This substrate is cleaved to release aminoluciferin, a substrate of luciferase used in the production of light. Addition of the single Caspase-Glo® 3/7 Reagent in an “add-mix-measure” format results in cell lysis, followed by caspase cleavage of the substrate and generation of a “glow-type” luminescent signal.
This assay uses the MOLP-8 human multiple myeloma cell line, which is sensitive to MCL-1 inhibition.
Cell cultures were maintained between 0.2 and 2.0×10^6 cells/mL. The cells were harvested by collection in 50 mL conical tubes. The cells were then pelleted at 500 g for 5 mins before removing supernatant and resuspension in fresh pre-warmed culture medium. The cells were counted and diluted as needed.
The assay reagent was prepared by transferring the buffer solution to the substrate vial and mixing. The solution may be stored for up to 1 week at 4° C. with negligible loss of signal.
Compounds were delivered in assay-ready plates (Proxiplate) and stored at −20° C.
Assays always include 1 reference compound plate containing reference compounds. The plates were spotted with 40 nL of compounds (0.5% DMSO final in cells; serial dilution; 30 μM highest conc. ⅓ dilution, 10 doses, duplicates). The compounds were used at room temperature and 4 μL of pre-warmed media was added to all wells except column 2 and 23. The negative control was prepared by adding 1% DMSO in media. The positive control was prepared by adding the appropriate positive control compound in final concentration of 60 μM in media. The plate was prepared by adding 4 μL negative control to column 23, 4 μL positive control to column 2 and 4 μL cell suspension to all wells in the plate. The plate with cells was then incubated at 37° C. for 2 hours. The assay signal reagent is the Caspase-Glo solution described above, and 8 μL was added to all wells. The plates were then sealed and measured after 30 minutes.
The activity of a test compound was calculated as percent change in apoptosis induction as follows:
LC=median of the Low Control values • =Central Reference in Screener • =DMSO • =0% ΠC=Median of the High Control values • =Scale Reference in Screener • =30 pM of positive control • =100% apoptosis induction
% Effect (AC50)=100−(sample−LC)/(HC−LC)*100
% Control=(sample/HC)*100
% Control min=(sample−LC)/(HC−LC)*100

[3] = 6 h, read-out: MOLP8 Caspase 3/7 AC50 at 6 h
[4] = 12 h, read-out: MOLP8 Caspase 3/7 AC50 at 12 h
[5] = 22 h, read-out: MOLP8 Caspase 3/7 AC50 at 22 h

Row | Structure (SMILES) | AC50 [1, 3] | AC50 [1, 4] | AC50 [1, 5] | AC50 [2]
1 | Cc1c(C(=O)O)n2c3ccc(Cl)c(c13)-c1c(nn(C)c1C)CSCc1cc(n(C)n1)CSc1cc(c3ccccc3c1)OCCC2 (single isomer, unassigned) [Compound 2, 1^5-chloro-1^3,2^1,2^5,6^1-tetramethyl-1′H,2′H,6H-10-oxa-4,8-dithia-1(4,1)-indola-2(4,3),6(3,5)-dipyrazola-9(3,1)-naphthalenacyclotridecaphane-1^2-carboxylic acid] | 4570 nM and 4790 nM | 4470 nM and 4680 nM | 4270 nM and 4470 nM | 10300 nM
2 | Cc1c(C(=O)O)n2c3ccc(Cl)c(c13)-c1c(nn(C)c1C)CSCc1cc(n(C)n1)CSc1cc(c3ccccc3c1)OCCC2 (single isomer, unassigned) [Compound 1, 1^5-chloro-1^3,2^1,2^5,6^1-tetramethyl-1^1H,2^1H,6^1H-10-oxa-4,8-dithia-1(4,1)-indola-2(4,3),6(3,5)-dipyrazola-9(3,1)-naphthalenacyclotridecaphane-1^2-carboxylic acid] | 178 nM and 129 nM | 141 nM and 182 nM | 145 nM and 170 nM | 50 nM
